US9049814B2, “Coated seeds and methods of making coated seeds” (VamTech, LLC, priority 2007, dated 2015)

What was measured:
[1] = tested on: VAM fungi (4 species VAM fungal cocktail) on corn plants; assay: Percent VAM development on 6-week-old corn plants from coated seed (2006); type: in vivo; conditions: for % VAM: 6-week-old corn plants, 95 VAM spores, low P; for % VAM, averaged: average across treatments, base VAM level 54% without treatment
Source text: Example 1 describes experimental studies carried out, in spring and summer of 2006 to evaluate the effects of different commercial fungicide seed coatings on VAM development in germinated corn seedlings in the presence and absence of alkali formononetinate. All corn seed coatings were done by Sub-Sahara International, Inc. (now owned by Becker Underwood Inc.) using standard coating procedures. The treater used was an RP-14 rotary seed coating machine manufactured by Sedpell in Canada. Successive applications were made with the fungicides being applied first according to the label instructions; then, when the seeds were dry they were over-coated with the alkali (potassium) formononetinate.
Fungicides were applied as a high viscosity, liquid suspension formulations according to the use directions on the respective labels.
The alkali formononetinate was dissolved in water and Polykote added according to the following ratios by weight: water—70 parts; alkali formononetinate—45 parts; Polykote—20 parts.
Seed germination and VAM development tests were carried out in a greenhouse at the Formosa Agricultural and Environmental Research Center, LaWard, Tex.
Percent VAM development was determined, within 3 weeks of treatment, on five, 6-week-old corn plants (from seeding) per treatment planted in sterile potting soil containing 95 spores of a 4 species VAM fungal cocktail at low P concentration. Originally 10 plants per treatment were installed in 30 ml Seedling® cells and after 10 days, 5 were transplanted into 1 liter containers.

[2] = tested on: VAM fungi (Glomus etunicatum, Glomus clarum, Entrophospora columbiana, Glomus intraradices) on corn roots; assay: VAM colonization of corn roots from Myconate over-treated seed (2007); type: in vivo, Zea mays L.; conditions: for % Root colonization by VAM: Mean (%) / % Root colonization by VAM in 5 replicates: A / % Root colonization by VAM in 5 replicates: B / % Root colonization by VAM in 5 replicates: C / % Root colonization by VAM in 5 replicates: D / % Root colonization by VAM in 5 replicates: E: variety BH, fungicide/insecticide pre-treated seed; for % Root colonization by VAM: Mean (%): mean of 5 replicates; for % Root colonization by VAM in 5 replicates: A: replicate A; for % Root colonization by VAM in 5 replicates: B: replicate B; for % Root colonization by VAM in 5 replicates: C: replicate C; for % Root colonization by VAM in 5 replicates: D: replicate D; for % Root colonization by VAM in 5 replicates: E: replicate E
Protocol: Methods: This study was conducted between February-April 2007 in a greenhouse at the Formosa Agricultural and Environmental Research Center using hybrid corn plants (Zea mays L.) var. Beck's Hybrids 5959 (HB) and Dow/Mycogen 2D675 (PG). The hybrid corn seed was purchased from commercial sources and was pre-treated with one of two fungicidal/insecticidal seed treatments. Variety HB was commercially treated with Beck's “SureGro” containing fludioxonil and mefenoxam fungicides; together with Agriliance Actellic 5E (a.i. pirimiphos-methyl) insecticide, according to label directions. Variety PG was commercially treated with Syngenta “Cruiser Extreme” (a.i. fludioxonil, mefenoxam and azoxystrobin fungicides plus thiamethoxam insecticide) according to label directions.
Subsequently, the corn seed was over-treated with one of two formulations of Myconate. One formulation contained 98% potassium formononetinate (kf) together with Polykote polymer; and the other, 100% acid formononetin (afP) together with Polykote polymer, wetting agent, colorant, and preservative. The kf treatments, 1 through 6 in Table 6, contained varying amounts of potassium formononetinate and were applied using a lab bench apparatus. The afP treatments, 18 and 19, were applied using commercial equipment. Treated HB seed received the kf treatment of potassium formononetinate at rates of 0.2 to 5.6 mg/seed. Treated PG seed received the afP treatment of formononetin at single rate of 0.8 mg/seed. The concentration of formononetin per seed was calculated by gravimetric measurement of the coating applied to the seed.
The controls for the kf treatments involved two seed samples, 7 and 8, both untreated with kf and one of these was also untreated with VAM spores. The control for the afP treatment was treated with afP but was not treated with VAM. The various treatments, including the addition of VAM spores to the growing medium prior to sowing for VAM development studies are described schematically in Table 6.
The colonization rate of VAM fungi on corn roots was determined using methods commonly used to quantify vesicular arbuscular mycorrhiza (Kormanik PP and AC McGraw (1984) Quantification of vesicular-arbuscular mycorrhizae in plant roots. In N. C. Schenck (ed.) Methods and Principles of Mycorrhizal Research. American Phytopathological Society, St. Paul, Minn.; Phillips J M and D S Hayman (1970) Improved procedures for clearing roots and staining parasitic and vesicular-arbuscular mycorrhizal fungi for rapid assessment of infection. Trans. Br. Mycol. Soc. 55:158-160; Read D J, H K Koncheki and J Hodgson (1976) Vesicular-arbuscular mycorrhiza in natural vegetation systems. New Phytol. 77:641-653). Speedling tray cells (30 ml volume) were partially (⅔) filled with autoclaved Miraco-III potting mix and inoculated with 95 spores of VAM cocktail (Lot No. 12-14-04). The VAM cocktail contained spores of Glomus etunicatum, Glomus clarum, Entrophospora columbiana and Glomus intraradices. The cocktail was prepared by mixing dry-sieved (179 microns) spore preparations of G. entunicatum, G. clarum and E. columbiana with dry root pieces containing the intraradical spores of G. intraradices. Each fungal species was individually produced and processed using a pot culture technique. The cells were then filled with Miraco-III mix. After sowing, (one seed per cell, 9-20 seed per treatment), the trays were incubated under continuous light at room temperature. Ten days after sowing, five seedlings from each experimental treatment and 10 from two untreated controls (Treatments 7 and 8) were randomly selected and transplanted to 1-liter cups containing a sand-based medium. The cups were incubated in a greenhouse and a low phosphorus (P) nutrient solution (1.175 ppm) was applied to all treatments 1-2 times per week as needed to maintain proper soil moisture. […]

[3] = tested on: VAM-infected roots of oats; conditions: thereby decreasing phosphorus uptake; cited from earlier work
Glomus mosseae = conditions: cited from earlier work
[4] = tested on: mycorrhizal colonization of Leucaena leucocephala; conditions: in vivo; cited from earlier work

For `COc1ccc(-c2coc3cc([O-])ccc3c2=O)cc1.[K+]` [Myconate kf, potassium formononetinate], the “% VAM” value ([1]; 0.5 mg alkali formononetinate/seed over-coated on the named fungicide (or none)) was 61%, the “% VAM, averaged” value ([1]; 0.5 mg alkali formononetinate/seed) was 67% and the “% VAM” value ([1]; 1.0 mg alkali formononetinate/seed over-coated on the named fungicide (or none)) was 66%. The “% VAM, averaged” value ([1]; 1.0 mg alkali formononetinate/seed) was 73%, the “increase of VAM colonization” value ([2]; 1.6 mg/seed) was “approximately 30%” and the “% Root colonization by VAM: Mean (%)” value ([2]; Treatment 1: 0.2 mg/seed kf) was 41.0%. The “% Root colonization by VAM in 5 replicates: A” value ([2]; Treatment 1: 0.2 mg/seed kf) was 40%, the “% Root colonization by VAM in 5 replicates: B” value ([2]; Treatment 1: 0.2 mg/seed kf) was 47% and the “% Root colonization by VAM in 5 replicates: C” value ([2]; Treatment 1: 0.2 mg/seed kf) was 41%. For the same compound, the “% Root colonization by VAM in 5 replicates: D” value (shortened to “% Root colonization by VAM … D”) ([2]; Treatment 1: 0.2 mg/seed kf) was 39%, the “% Root colonization by VAM in 5 replicates: E” value ([2]; Treatment 1: 0.2 mg/seed kf) was 38% and the “% Root colonization by VAM: Mean (%)” value ([2]; Treatment 2: 0.4 mg/seed kf) was 43.6%. For the same compound, the “% Root colonization by VAM in 5 replicates: A” value ([2]; Treatment 2: 0.4 mg/seed kf) was 44%, the “% Root colonization by VAM in 5 replicates: B” value ([2]; Treatment 2: 0.4 mg/seed kf) was 48% and the “% Root colonization by VAM in 5 replicates: C” value ([2]; Treatment 2: 0.4 mg/seed kf) was 45%. For the same compound, the “% Root colonization by VAM … D” value ([2]; Treatment 2: 0.4 mg/seed kf) was 40%, the “% Root colonization by VAM in 5 replicates: E” value ([2]; Treatment 2: 0.4 mg/seed kf) was 41% and the “% Root colonization by VAM: Mean (%)” value ([2]; Treatment 3: 0.8 mg/seed kf) was 43.8%. For the same compound, the “% Root colonization by VAM in 5 replicates: A” value ([2]; Treatment 3: 0.8 mg/seed kf) was 45%, the “% Root colonization by VAM in 5 replicates: B” value ([2]; Treatment 3: 0.8 mg/seed kf) was 42% and the “% Root colonization by VAM in 5 replicates: C” value ([2]; Treatment 3: 0.8 mg/seed kf) was 47%. The “% Root colonization by VAM … D” value ([2]; Treatment 3: 0.8 mg/seed kf) was 45%, the “% Root colonization by VAM in 5 replicates: E” value ([2]; Treatment 3: 0.8 mg/seed kf) was 40% and the “% Root colonization by VAM: Mean (%)” value ([2]; Treatment 4: 1.6 mg/seed kf) was 32.0%. For the same compound, the “% Root colonization by VAM in 5 replicates: A” value ([2]; Treatment 4: 1.6 mg/seed kf) was 30%, the “% Root colonization by VAM in 5 replicates: B” value ([2]; Treatment 4: 1.6 mg/seed kf) was 39% and the “% Root colonization by VAM in 5 replicates: C” value ([2]; Treatment 4: 1.6 mg/seed kf) was 28%. For the same compound, the “% Root colonization by VAM … D” value ([2]; Treatment 4: 1.6 mg/seed kf) was 35%, the “% Root colonization by VAM in 5 replicates: E” value ([2]; Treatment 4: 1.6 mg/seed kf) was 28% and the “% Root colonization by VAM: Mean (%)” value ([2]; Treatment 5: 4.0 mg/seed kf) was 25.0%. The “% Root colonization by VAM in 5 replicates: A” value ([2]; Treatment 5: 4.0 mg/seed kf) was 27%, the “% Root colonization by VAM in 5 replicates: B” value ([2]; Treatment 5: 4.0 mg/seed kf) was 21% and the “% Root colonization by VAM in 5 replicates: C” value ([2]; Treatment 5: 4.0 mg/seed kf) was 31%. The “% Root colonization by VAM … D” value ([2]; Treatment 5: 4.0 mg/seed kf) was 24%, the “% Root colonization by VAM in 5 replicates: E” value ([2]; Treatment 5: 4.0 mg/seed kf) was 22% and the “% Root colonization by VAM: Mean (%)” value ([2]; Treatment 6: 5.6 mg/seed kf) was 18.2%. For the same compound, the “% Root colonization by VAM in 5 replicates: A” value ([2]; Treatment 6: 5.6 mg/seed kf) was 19%, the “% Root colonization by VAM in 5 replicates: B” value ([2]; Treatment 6: 5.6 mg/seed kf) was 12% and the “% Root colonization by VAM in 5 replicates: C” value ([2]; Treatment 6: 5.6 mg/seed kf) was 25%. For the same compound, the “% Root colonization by VAM … D” value ([2]; Treatment 6: 5.6 mg/seed kf) was 18%, the “% Root colonization by VAM in 5 replicates: E” value ([2]; Treatment 6: 5.6 mg/seed kf) was 17% and the “effect on VAM colonization” value ([2]; at or above 4.0 mg/seed) was “decreased VAM colonization”. The “increase of VAM colonization” value ([2]; commercial use rate (0.8 mg/seed), over the untreated control (24.2% VAM colonization)) was 81%.
In the case of `O=[N+]([O-])c1c(Cl)c(Cl)c(Cl)c(Cl)c1Cl` [PCNB, pentachloronitrobenzene], the “VAM-infected root length of oats” value [3] is listed as “decreased”.
In the case of `CCCCNC(=O)n1c(NC(=O)OC)nc2ccccc21` [benomyl], the “Growth of the vesicular arbuscular mycorrhizal fungus Glomus mosseae” value (Glomus mosseae) is listed as “affected”.
For `N#Cc1c(Cl)c(Cl)c(Cl)c(C#N)c1Cl` [chlorothalonil], the “mycorrhizal colonization, phosphorus concentration, and dry matter yields of Leucaena leucocephala” value [4] is listed as “decrease”.
